Test [1] has as its system Pseudomonas aeruginosa. It is filed as functional, MTCC 424.
The subject of test [2] is Aspergillus fumigatus. Put plainly: Antifungal activity against Aspergillus fumigatus MTCC 343 at […] to […] ug/ml after 28 to 30 hr by cup-plate method. In kind it is functional.
Test [3] relates to Staphylococcus aureus. Put plainly: Antibacterial activity against Staphylococcus aureus MTCC 096 after 16 to 18 hr by serial dilution method. In kind it is functional.
The test system of test [4] is Candida albicans. The experiment in a line: Antifungal activity against Candida albicans MTCC 227 after 28 to 30 hr by serial dilution method. In kind it is functional.
Test [5] deals with Salmonella typhi. Put plainly: Antibacterial activity against Salmonella enterica subsp. enterica serovar Typhi MTCC 733 at […] to […] ug/ml after 16 to 18 hr by cup-plate method. It is filed as functional.
The test system of test [6] is Staphylococcus aureus. It is filed as functional, MTCC 096.
Test [7] relates to Bacillus subtilis. In kind it is functional, MTCC 441.
The subject of test [8] is Bacillus subtilis. The experiment in a line: Antibacterial activity against Bacillus subtilis MTCC 441 after 16 to 18 hr by serial dilution method. In kind it is functional.
Test [9] deals with Aspergillus niger. The experiment in a line: Antifungal activity against Aspergillus niger MTCC 282 at […] to […] ug/ml after 28 to 30 hr by cup-plate method. In kind it is functional.
Test [10] has as its system Escherichia coli. In kind it is functional, MTCC 443.
For test [11], the system named is Staphylococcus epidermidis. In kind it is functional, MTCC 435.
For test [12], the system named is Klebsiella pneumoniae. Put plainly: Antibacterial activity against Klebsiella pneumoniae MTCC 432 after 16 to 18 hr by serial dilution method. It is filed as functional.
Test [13] concerns Salmonella typhi. Put plainly: Antibacterial activity against Salmonella enterica subsp. enterica serovar Typhi MTCC 733 after 16 to 18 hr by serial dilution method. It is filed as functional.
Test [14] deals with Aspergillus fumigatus. Put plainly: Antifungal activity against Aspergillus fumigatus MTCC 343 after 28 to 30 hr by serial dilution method. In kind it is functional.
Test [15] has as its system Aspergillus flavus. The experiment in a line: Antifungal activity against Aspergillus flavus MTCC 277 at […] to […] ug/ml after 28 to 30 hr by cup-plate method. In kind it is functional.
Test [16] concerns Aspergillus niger. Put plainly: Antifungal activity against Aspergillus niger MTCC 282 after 28 to 30 hr by serial dilution method. It is filed as functional.
The subject of test [17] is Candida albicans. It is filed as functional, MTCC 227.
Test [18] has as its system Klebsiella pneumoniae. It is filed as functional, MTCC 432.
The subject of test [19] is Aspergillus flavus. The experiment in a line: Antifungal activity against Aspergillus flavus MTCC 277 after 28 to 30 hr by serial dilution method. It is filed as functional.
Test [20] relates to Escherichia coli. The experiment in a line: Antibacterial activity against Escherichia coli MTCC 443 after 16 to 18 hr by serial dilution method. In kind it is functional.
Test [21] relates to Staphylococcus epidermidis. Put plainly: Antibacterial activity against Staphylococcus epidermidis MTCC 435 after 16 to 18 hr by serial dilution method. It is filed as functional.
The test system of test [22] is Pseudomonas aeruginosa. Put plainly: Antibacterial activity against Pseudomonas aeruginosa MTCC 424 after 16 to 18 hr by serial dilution method. It is filed as functional.

Values after ≈ are worked out from the molar mass of the structure shown. Bounds are passed on as bounds.

On to `O=c1cc(OCc2nnc(-c3ccc(O)cc3)[nH]2)c2ccccc2o1`, for which the “inhibition zone (IZ)” value in test [1] is on record as less than 10 mm; in test [2], 12 mm; in [5], 10 mm; in [6], 11 mm; in [7], less than 10 mm; in [9], 12 mm. The “inhibition zone (IZ)” value in test [10] was 14 mm; in [11], 11 mm; in test [15], less than 10 mm; in test [17] it was 15 mm; in test [18], 14 mm. Moreover, the MIC was 12.5 µg/mL (≈ 37.3 µM) in test [3]; 6.25 µg/mL (≈ 18.6 µM) in test [4]; 50 µg/mL (≈ 149 µM) in test [8]; 6.25 µg/mL (≈ 18.6 µM) in [12]; 25 µg/mL (≈ 74.6 µM) in test [13]; 12.5 µg/mL (≈ 37.3 µM) in [14]. For the same compound, the MIC in test [16] came out at 12.5 µg/mL (≈ 37.3 µM); in [19], 25 µg/mL (≈ 74.6 µM); in test [20] it was 6.25 µg/mL (≈ 18.6 µM); in test [21], 12.5 µg/mL (≈ 37.3 µM); in test [22], 50 µg/mL (≈ 149 µM).
As to `Cc1ccc(-c2nnc(COc3cc(=O)oc4ccccc34)[nH]2)cc1`, the “inhibition zone (IZ)” value in test [1] came out at 11 mm; in test [2], 11 mm; in test [5], 12 mm; in [6] it was 11 mm; in test [7], 11 mm; in test [9], 13 mm. Also, the “inhibition zone (IZ)” value in [10] is given as 11 mm; in [11] it was less than 10 mm; in [15], less than 10 mm; in test [17], 15 mm; in [18], 13 mm. For the same compound, the MIC in test [3] worked out at 12.5 µg/mL (≈ 37.5 µM); in [4], 6.26 µg/mL (≈ 18.8 µM); in [8] it was 12.5 µg/mL (≈ 37.5 µM); in [12], 12.5 µg/mL (≈ 37.5 µM); in [13], 12.5 µg/mL (≈ 37.5 µM); in [14], 25 µg/mL (≈ 75 µM). Also, the MIC in test [16] came out at 6.25 µg/mL (≈ 18.7 µM); in test [19] it was 25 µg/mL (≈ 75 µM); in test [20], 12.5 µg/mL (≈ 37.5 µM); in test [21], 50 µg/mL (≈ 150 µM); in test [22], 12.5 µg/mL (≈ 37.5 µM).
`COc1ccc(-c2nnc(COc3cc(=O)oc4ccccc34)[nH]2)cc1`: the “inhibition zone (IZ)” value is less than 10 mm in [1]; less than 10 mm in test [2]; less than 10 mm in [5]; 13 mm in [6]; 11 mm in test [7]; 12 mm in [9]. In addition, the “inhibition zone (IZ)” value in test [10] is listed as 11 mm; in [11], less than 10 mm; in test [15], less than 10 mm; in test [17], 14 mm; in test [18] it was 14 mm. The MIC in test [3] was determined as 6.25 µg/mL (≈ 17.9 µM); in test [4], 6.25 µg/mL (≈ 17.9 µM); in [8], 12.5 µg/mL (≈ 35.8 µM); in test [12], 6.25 µg/mL (≈ 17.9 µM); in test [13], 25 µg/mL (≈ 71.6 µM); in [14], 25 µg/mL (≈ 71.6 µM). Also, the minimal inhibitory concentration (MIC) in [16] stood at 6.25 µg/mL (≈ 17.9 µM); in [19] it was 25 µg/mL (≈ 71.6 µM); in test [20], 12.5 µg/mL (≈ 35.8 µM); in test [21], 25 µg/mL (≈ 71.6 µM); in test [22] it was 50 µg/mL (≈ 143 µM).
Take `O=C(O)c1cn(C2CC2)c2cc(N3CCNCC3)c(F)cc2c1=O` [CIPROFLOXACIN]: the “inhibition zone (IZ)” value in test [1] is 16 mm; in test [5], 19 mm; in test [6], 17 mm; in [7] it was 18 mm; in test [11] it was 15 mm; in test [18], 17 mm. Besides, the MIC in test [8], in test [12], in [13] and in test [21] was 6.25 µg/mL (≈ 18.9 µM) each time.
For `Clc1ccc(COC(Cn2ccnc2)c2ccc(Cl)cc2Cl)c(Cl)c1` (centres undefined) [MICONAZOLE], the “inhibition zone (IZ)” value was found to be 14 mm in [2], 17 mm in [9], 17 mm in test [15] and 15 mm in test [17]. In addition, the MIC is 6.25 µg/mL (≈ 15 µM) in test [4], 12.5 µg/mL (≈ 30 µM) in [14], 6.25 µg/mL (≈ 15 µM) in [16] and 6.25 µg/mL (≈ 15 µM) in test [19].

The values above are taken from ChEMBL document CHEMBL3045586, “Synthesis and antimicrobial activity of some new 4-triazolylmethoxy-2H-chromen-2-one derivatives” (2012).
